From PubChem BioAssay AID2060338 (Molecular Pharmacology Branch, DTP, NCI, 2025)

Tested on: 556581-035-R-J1-PDC spheroids with HUVEC/MSC, viability
Assay: Anticancer human tumor 556581-035-R-J1-PDC patient-derived ovarian carcinoma cell line growth inhibition [IpAb]
Conditions: for IC50: curve of first compound; for viability, T/C: stronger effect = lower value; active means viability on the fitted dose curve at most 10% of control; inactive means the rest
Outline: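 Multi-cell spheroids of 60% tumour cells, 25% HUVEC and 15% MSC in ultra-low-attachment U-bottom wells, treated with agents combined with ipatasertib or abemaciclib. Half-log ranges top out near clinical Cmax, or 10 microM when Cmax is unknown.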

[1] = second compound 0.01 µM, first compound 0.00949 µM
[2] = second compound 0.01 µM, first compound 0.03 µM
[3] = second compound 0.01 µM, first compound 0.0949 µM
[4] = second compound 0.01 µM, first compound 0.3 µM
[5] = second compound 0.0316 µM, first compound 0.00949 µM
[6] = second compound 0.0316 µM, first compound 0.03 µM
[7] = second compound 0.0316 µM, first compound 0.0949 µM
[8] = second compound 0.0316 µM, first compound 0.3 µM
[9] = second compound 0.1 µM, first compound 0.00949 µM
[10] = second compound 0.1 µM, first compound 0.03 µM
[11] = second compound 0.1 µM, first compound 0.0949 µM
[12] = second compound 0.1 µM, first compound 0.3 µM
[13] = second compound 0.316 µM, first compound 0.00949 µM
[14] = second compound 0.316 µM, first compound 0.03 µM
[15] = second compound 0.316 µM, first compound 0.0949 µM
[16] = second compound 0.316 µM, first compound 0.3 µM
[17] = second compound 1 µM, first compound 0.00949 µM
[18] = second compound 1 µM, first compound 0.03 µM
[19] = second compound 1 µM, first compound 0.0949 µM
[20] = second compound 1 µM, first compound 0.3 µM
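Further: spheroids exposed to compounds for 7 days before readout.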

CC(=O)c1c(C)c2cnc(Nc3ccc(N4CCNCC4)cn3)nc2n(C2CCCC2)c1=O + CCN1CCN(Cc2ccc(Nc3ncc(F)c(-c4cc(F)c5nc(C)n(C(C)C)c5c4)n3)nc2)CC1
> 300 nM: IC50 (second compound 0.01 µM) | IC50 (second compound 0.0316 µM) | IC50 (second compound 0.1 µM) | IC50 (second compound 0.316 µM) | IC50 (second compound 1 µM)
inactive: viability, T/C (second compound 0.01 µM, first compound 0.000949 µM) 99.9% | viability, T/C (second compound 0.01 µM, first compound 0.003 µM) 106% | viability, T/C [1] 117% | viability, T/C [2] 100% | viability, T/C [3] 82.7% | viability, T/C [4] 88.3% | viability, T/C (second compound 0.0316 µM, first compound 0.000949 µM) 76.2% | viability, T/C (second compound 0.0316 µM, first compound 0.003 µM) 93.2% | viability, T/C [5] 101% | viability, T/C [6] 91.3% | viability, T/C [7] 92.2% | viability, T/C [8] 76.1% | viability, T/C (second compound 0.1 µM, first compound 0.000949 µM) 81.7% | viability, T/C (second compound 0.1 µM, first compound 0.003 µM) 84.4% | viability, T/C [9] 82% | viability, T/C [10] 87.3% | viability, T/C [11] 80.2% | viability, T/C [12] 89.1% | viability, T/C (second compound 0.316 µM, first compound 0.000949 µM) 89.5% | viability, T/C (second compound 0.316 µM, first compound 0.003 µM) 84.4% | viability, T/C [13] 94.6% | viability, T/C [14] 68.8% | viability, T/C [15] 81.3% | viability, T/C [16] 64% | viability, T/C (second compound 1 µM, first compound 0.000949 µM) 49.9% | viability, T/C (second compound 1 µM, first compound 0.003 µM) 57.8% | viability, T/C [17] 46.6% | viability, T/C [18] 55% | viability, T/C [19] 49.8% | viability, T/C [20] 54%

CC(C)(C)c1cnc(CSc2cnc(NC(=O)C3CCNCC3)s2)o1 + CCN1CCN(Cc2ccc(Nc3ncc(F)c(-c4cc(F)c5nc(C)n(C(C)C)c5c4)n3)nc2)CC1
154 nM: IC50 (second compound 0.01 µM)
active: viability, T/C [4] 2.06% | viability, T/C (second compound 0.01 µM, first compound 0.949 µM) 2.48% | viability, T/C (second compound 0.01 µM, first compound 3 µM) 2.1% | viability, T/C [8] 5.51% | viability, T/C (second compound 0.0316 µM, first compound 0.949 µM) 1.33% | viability, T/C (second compound 0.0316 µM, first compound 3 µM) 0.97% | viability, T/C [12] 1.38% | viability, T/C (second compound 0.1 µM, first compound 0.949 µM) 3.13% | viability, T/C (second compound 0.1 µM, first compound 3 µM) 1.36% | viability, T/C [15] 7.97% | viability, T/C [16] 1.31% | viability, T/C (second compound 0.316 µM, first compound 0.949 µM) 2.8% | viability, T/C (second compound 0.316 µM, first compound 3 µM) 3.38% | viability, T/C [19] 3.81% | viability, T/C [20] 1.87% | viability, T/C (second compound 1 µM, first compound 0.949 µM) 0.65% | viability, T/C (second compound 1 µM, first compound 3 µM) 1.32%
114 nM: IC50 (second compound 0.0316 µM)
45.4 nM: IC50 (second compound 0.316 µM)
inactive: viability, T/C [1] 103% | viability, T/C [2] 122% | viability, T/C [3] 84.5% | viability, T/C [5] 115% | viability, T/C [6] 103% | viability, T/C [7] 59.2% | viability, T/C [9] 93.8% | viability, T/C [10] 93.9% | viability, T/C [11] 31.8% | viability, T/C [13] 83.5% | viability, T/C [14] 73.7% | viability, T/C [17] 55.7% | viability, T/C [18] 35.4%
67.8 nM: IC50 (second compound 0.1 µM)
13.1 nM: IC50 (second compound 1 µM)
